The values that follow come from US11390591B2, “2,4,6-trisubstituted s-triazine compound, preparation method therefor, and use thereof” (Aluda Pharmaceuticals, Inc., priority 2016, dated 2022).

One test deals with T1, vimentin (Homo sapiens, UniProt P08670).
T1 construct: #79 compound used as a probe is bonded in situ to a target protein within a cell; endogenous in cells; host or cells: U87 human glioma cells
The test can be described thus: Fishing of a target protein with a probe (photo-crosslinking, click reaction, MALDI-MS/MS). It is filed as binding. Conditions: 0.5 μM probe, U87 cells, 3 hours, UV crosslinking. How it is done:
FIG. 4 summarizes isolation and identification of a target protein corresponding to a compound causing cell vacuolization. The related steps are described briefly as follows.
An amount of human glioma cells U87 were plated in an 150 cm^2 Petri dish and cultured for 48 hours to reach 75-90% confluence. The culture medium was replaced with a prewarmed medium containing either 0.5 μM probe (#79 compound) or an equivalent volume of DMSO control. The cells continued in culture for 3 hours.
The cells were washed twice with a prechilled phosphate buffer saline (PBS). The cell-culture dish was placed on ice, and the cells were irradiated with ultraviolet light (an ultraviolet lamp having a power of 100 W, wavelength 350 nm, or 315-385 nm) through the top of the dish for 1 hour. Alternatively, a minimal amount of prechilled PBS (10 ml/150 cm^2) was added to the cell-culture dish which was then placed on an ultraviolet irradiator. The bottom of the cell-culture dish received irradiation for 30 minutes (wavelength 315-385 nm, time being adjusted in light of the ultraviolet power).
The cells were dissociated with trypsin, precipitated by centrifugation, and washed twice with PBS. […] The protein concentration of the cell lysate was measured using the Bradford method. […]

The subject of another test is human glioma U87 cells. The test is described as follows: Tumor cell vacuolization (methuosis) scoring, U87. It is filed as cell-based. The note with it: U87 cells. In outline: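 U87 cells (10^3/well, RPMI1640 with 10% FBS) were exposed to compounds at 0.01–3.160 μM for 96 h at 37° C. Vacuolization was scored microscopically from 5 (obvious at 10 nM) stepping down to 1 (at 1000 nM), and 0 if absent at any concentration.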

T1 sequence (P08670 whole entry): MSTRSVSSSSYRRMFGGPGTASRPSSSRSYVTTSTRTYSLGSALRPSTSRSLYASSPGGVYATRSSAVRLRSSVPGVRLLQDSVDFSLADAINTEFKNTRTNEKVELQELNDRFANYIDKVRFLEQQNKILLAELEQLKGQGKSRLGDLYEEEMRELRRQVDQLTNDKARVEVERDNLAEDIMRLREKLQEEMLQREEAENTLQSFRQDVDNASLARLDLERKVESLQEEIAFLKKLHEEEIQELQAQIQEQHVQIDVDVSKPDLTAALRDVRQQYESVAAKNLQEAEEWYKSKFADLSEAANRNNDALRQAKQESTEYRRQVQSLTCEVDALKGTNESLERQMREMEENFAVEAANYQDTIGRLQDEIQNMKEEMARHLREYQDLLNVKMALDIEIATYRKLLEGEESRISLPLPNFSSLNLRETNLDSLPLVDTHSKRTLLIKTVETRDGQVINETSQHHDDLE

`C#CCCC1(CCNC(=O)c2ccc(NC(=O)Nc3ccc(Nc4nc(/C=C/c5ccccc5)nc(N5CCOCC5)n4)cc3)cc2)N=N1` [compound 79, (E)-N-(2-(3-(1-butyn-4-yl)-3H-diaziridin-3-yl)ethyl)-4-(3-(4-((4-(morpholin-1-yl)-6-styrenyl-1,3,5-triazin-2-yl)amino)phenyl)urea)benzamide]: the “target protein of the compound” value on vimentin was “vimentin”. The “Vacuolation Score” value with human glioma U87 cells (0.01-3.160 μM, 96 hours, microscope) was found to be 4.5. Moreover, the “ability to cause cell vacuolization (in words)” value in the test with human glioma U87 cells (among the compounds tested) was “same cell phenotype”.
